The target of this assay is T1, Glucocorticoid receptor (Homo sapiens) (UniProt P04150).
T1 sequence (whole entry): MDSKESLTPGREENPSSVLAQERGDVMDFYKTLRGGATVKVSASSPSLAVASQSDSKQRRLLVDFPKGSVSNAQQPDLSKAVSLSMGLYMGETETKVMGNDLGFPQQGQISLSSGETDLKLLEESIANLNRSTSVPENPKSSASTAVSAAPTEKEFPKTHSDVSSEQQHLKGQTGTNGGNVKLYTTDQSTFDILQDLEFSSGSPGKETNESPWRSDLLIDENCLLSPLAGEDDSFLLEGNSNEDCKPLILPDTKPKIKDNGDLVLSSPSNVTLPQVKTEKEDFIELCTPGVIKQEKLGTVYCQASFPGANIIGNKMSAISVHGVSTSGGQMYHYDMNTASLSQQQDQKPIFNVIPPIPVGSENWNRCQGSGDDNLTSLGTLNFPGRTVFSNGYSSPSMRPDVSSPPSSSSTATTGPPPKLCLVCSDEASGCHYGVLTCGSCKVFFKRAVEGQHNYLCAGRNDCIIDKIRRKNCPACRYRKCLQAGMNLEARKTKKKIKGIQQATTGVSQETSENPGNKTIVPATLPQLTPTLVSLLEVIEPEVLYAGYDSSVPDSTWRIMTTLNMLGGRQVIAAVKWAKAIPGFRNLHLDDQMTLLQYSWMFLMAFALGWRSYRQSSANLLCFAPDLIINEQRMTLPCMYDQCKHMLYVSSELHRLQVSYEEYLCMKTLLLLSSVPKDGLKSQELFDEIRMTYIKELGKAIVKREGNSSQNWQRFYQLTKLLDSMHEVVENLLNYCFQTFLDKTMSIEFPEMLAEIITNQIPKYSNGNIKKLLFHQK
The following applies: HeLa.
Description: Relative transcriptional activation in HeLa cells expressing glucocorticoid receptor
Compound `C[C@@H]1CC2C3CCC4=Cc5c(cnn5-c5ccc(Cl)nc5)CC4(C)C3C(O)CC2(C)[C@@]1(O)C(=O)CO` (some centres not stated) yielded an RSA of 24. Under `C[C@@H]1CC2C3CCC4=Cc5c(cnn5-c5ccc(F)cc5)CC4(C)C3C(O)CC2(C)C1(O)C(=O)CO` (some centres not stated) stands 483; under `C[C@@H]1CC2C3CCC4=Cc5c(cnn5-c5ccncc5)CC4(C)C3C(O)CC2(C)[C@@]1(O)C(=O)CO` (some centres not stated), 135; under `C[C@@H]1CC2C3CCC4=Cc5c(cnn5-c5ncccn5)CC4(C)C3C(O)CC2(C)[C@@]1(O)C(=O)CO` (some centres not stated), 0. The figure for `C[C@@H]1CC2C3CCC4=Cc5c(cnn5-c5cccnc5F)CC4(C)C3C(O)CC2(C)[C@@]1(O)C(=O)CO` (some centres not stated) is 121; for `C[C@@H]1CC2C3CCC4=Cc5c(cnn5-c5cccnc5)CC4(C)C3C(O)CC2(C)[C@@]1(O)C(=O)CO` (some centres not stated) it is 255; for `C[C@@H]1CC2C3CCC4=Cc5c(cnn5-c5ccccn5)CC4(C)C3C(O)CC2(C)[C@@]1(O)C(=O)CO` (some centres not stated) it is 30. As for `C[C@@H]1C[C@H]2[C@@H]3CCC4=CC(=O)C=C[C@]4(C)[C@@]3(F)[C@@H](O)C[C@]2(C)[C@@]1(O)C(=O)CO`, the RSA stood at 100. `C[C@@H]1CC2C3CCC4=Cc5c(cnn5-c5ccc(F)nc5)CC4(C)C3C(O)CC2(C)[C@@]1(O)C(=O)CO` (some centres not stated) showed an RSA of 436. Under `C[C@@H]1CC2C3CCC4=Cc5c(cnn5-c5ccncn5)CC4(C)C3C(O)CC2(C)[C@@]1(O)C(=O)CO` (some centres not stated) stands 0. `C[C@@H]1CC2C3CCC4=Cc5c(cnn5-c5cnccc5Cl)CC4(C)C3C(O)CC2(C)[C@@]1(O)C(=O)CO` (some centres not stated) displayed an RSA of 33. The figure for `C[C@@H]1CC2C3CCC4=Cc5c(cnn5-c5cccnc5Cl)CC4(C)C3C(O)CC2(C)[C@@]1(O)C(=O)CO` (some centres not stated) is 97.

Values taken from ChEMBL document CHEMBL1135667, “Synthesis of halogen-substituted pyridyl and pyrimidyl derivatives of [3,2-c]pyrazolo corticosteroids: strategies for the development of glucocorticoid receptor mediated imaging agents” (J Med Chem, 2002).
